In brackets after ≈: the same amount, converted by molar mass. Where two headings read alike, the source gives them in different places. Numbered stars: 1 amine (or outer) side, 2 acyl side, 3 side chain; on linkers, the order of the positions; unused ones are H or OH. Bridge positions count the residues as written; N and C are the ends. Square brackets hold non-standard residues; d marks the D form. Peptide text beside a SMILES is read from it. * marks the point of attachment. X5 = O=C([C@@H]1C[C@@H](OP(=O)(O)O)CN1[*:1])[*:2]; Piperazine(2S-CO,4-Me) = CN1CCN[C@H](C(=O)O)C1; Phe(3-OMe) = COc1cccc(C[C@H](N)C(=O)O)c1; Morpholine(3S-CO) = O=C(O)[C@@H]1COCCN1; Phe(3-Me) = Cc1cccc(C[C@H](N)C(=O)O)c1; NH(4-Cl-2-F-phenyl) = Fc1cc(Cl)ccc1N*; Pro(4R-Me) = C[C@H]1CN[C@H](C(=O)O)C1; Hyp = O=C(O)[C@@H]1C[C@@H](O)CN1; aThr = C[C@H](O)[C@H](N)C(=O)O; Pip = O=C(O)[C@@H]1CCCCN1; X3 = c1cc2c(cc1N*)OCCO2; CO = O=C([*:1])[*:2]; X2 = Fc1cc(N*)ccc1Cl
Legend:
Sa-ClpP = target: T1, Sa-ClpP (Staphylococcus aureus, UniProt Q2G036); assay: ADEP displacement fluorescence polarization assay; type: binding, S. aureus; conditions: displacement of FP probe ADEP 2591 from Sa-ClpP
T1 construct: made in house; host or cells: E. coli BL21 (DE3)
Protocol: A fluorescence polarization (FP) assay was used to determine the activity of the disclosed compounds in displacing an ADEP analogue from ClpP. Briefly, the assay was performed in black 384 well, flat bottom, low volume plates (Greiner Bio-One, Monroe, N.C., catalog #784076). 20 μL of a pre-equilibrated (1 hr, room temperature) master mix (15 μM Sa-ClpP, 2% DMSO (v/v) and 50 nM FP probe in TrisHCl, pH 8.0)) was pipetted into each well using a Well-Mate (Thermo Scientific, Waltham, Mass.). Sa-ClpP was prepared as described above for the ClpP activation assay. The FP probe was ADEP 2591 (structure shown above). The ADEP 2591 comprises a TAMRA fluorophore linked to a core based on modified ADEP 2378 via a short alkyl linker. Using pin transfer, approximately 0.4 μL (2% v/v DMSO) of each compound or control was added per well. After addition of compounds and controls, plates were allowed to incubate for an additional 120 minutes at room temperature. All assays were performed in triplicate. Polarization was monitored using an EnVision Multilabel reader (Perkin-Elmer, Waltham, Mass.) by exciting the FP probe at 530±25 nm, and monitoring fluorescence intensity of both parallel and perpendicular polarized light at 579±25 nm. Readout was in millipolarization units (mP).
Signal gain and G factors were determined in wells containing 200 μM ADEP 2378, which had been previously verified (data not shown) as containing completely unbound ADEP 2591. Data collected was normalized to values obtained from positive (200 μM ADEP 2378) or negative (DMSO) controls. Curves were fit with non-linear regression using the equation “log [inhibitor] vs. Response-variable slope (four parameters)-symmetrical” in the program Prism 6 (GraphPad Software, La Jolla, Calif. USA, www.graphpad.com). The structures for ADEP 2378 and ADEP 2591 are shown above. ADEP 2378 is (E)-N—((S)-1-(((2R,6S,8aS,14aS,20S,23aS)-2,6-dimethyl-5,8,14,19,23-pentaoxooctadecahydro-1H,5H,14H,19H-pyrido[2,1-i]dipyrrolo[2,1-c:2′,1′-1][1]oxa[4,7,10,13]tetraazacyclohexadecin-20-yl)amino)-1-oxo-3-phenylpropan-2-yl)pent-2-enamide. ADEP 2591 is 5-(3-(3-((6S,9S,11aS,17S,20aS)-6,10-dimethyl-5,8,11,16,20-pentaoxo-17-((S)-2-((E)-pent-2-enamido)-3-phenylpropanamido)hexadecahydro-1H,5H,16H-dipyrrolo[2,1-c:2′,1′-1][1]oxa[4,7,10,13]tetraazacyclohexadecin-9-yl)propyl)thioureido)-2-(6-(dimethylamino)-3-(dimethyliminio)-3H-xanthen-9-yl)benzoate.

Solubility determination = type: physicochemical; conditions: for solubility kinetic at 10 min: 22 °C, aqueous buffer, kinetic from dmso stock
Protocol: Test compounds were synthesized and supplied by the Department of Chemical Biology and Therapeutics at St. Jude Children's Research Hospital (Memphis, Tenn.). LC-MS chromasolv grade acetonitrile (ACN) was purchased from Fisher Scientific (Loughborough, UK). LC-MS chromasolv grade formic acid was obtained from Sigma-Aldrich (St. Louis, Mo.). Milli-Q water as an ultrapure laboratory grade water was used in aqueous mobile phase.
Chromatographic separation was performed on an Acquity UPLC BEH C18 1.7 μm, 2.1×50 mm column (Waters Corporation, Milford, Mass.) using an Acquity ultra performance liquid chromatography system. The total flow rate was 0.9 mL/min. The sample injection volume was 10 μL. The UPLC column was maintained at 60° C. and the gradient program started at 90% A (0.1% formic acid in MilliQ H2O), changed to 70% A over 0.2 min, to 95% B (0.1% formic acid in ACN) over 1.4 minutes, held for 0.35 minutes, then to 90% A over 0.05 minutes.
Mass data was acquired with an Acquity SQD Mass Spectrometer. The mass spectrometer was operated in positive-ion mode with electrospray ionization. The conditions were as follows: capillary voltage 3.5 kV, cone voltage 30 V, source temperature 150° C., desolvation temperature 350° C., desolvation gas 500 L/hr, cone gas 25 L/hr. Data were acquired using Masslynx v. 4.1 and analyzed using the Quanlynx software suite. A full scan range from m/z=100-1000 in 0.2 s was used to acquire MS data. Both UV and Single ion recording mass spectrometry were used to determine the quantification of the samples.
Stock solutions were prepared by dissolving compounds into DMSO to yield a concentration of 10 mM. Stock solutions were stored at room temperature.
Calibration standards were made by adding stock solutions to DMSO for final concentrations of compounds at concentration of 100, 25, 6.25, 1.563, 0.391 and 0.098 μM.
Solubility test samples were made by adding stock solutions to 200 μL, of DPBS for final concentrations of compounds at 100 μM in a 96-well analytical plate (300 μL, maximum volume in each well). Samples were tested in triplicates. The plate was sealed, shaken at 600 rpm for 10 minutes, and then was centrifuged at 4000 rpm for 20 min at 22° C. 100 μL, of the supernatant was transferred to a new analytical 96-well plate and 10 μL, was injected onto the LCMS system.
Two calibration curves for solubility test samples were analyzed during the quantitation process. The linear regression of test compound peak areas was weighted by 1/x^2. […] Coefficient of determination (R^2) was used to evaluate the linearity of each calibration curve.

T1 sequence (Q2G036 whole entry): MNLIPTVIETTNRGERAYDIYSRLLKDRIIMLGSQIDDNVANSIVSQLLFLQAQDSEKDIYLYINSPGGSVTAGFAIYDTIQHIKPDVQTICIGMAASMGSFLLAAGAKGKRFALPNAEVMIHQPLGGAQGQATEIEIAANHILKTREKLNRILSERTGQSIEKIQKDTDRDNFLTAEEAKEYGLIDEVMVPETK

## Cc1cccc(C[C@H](NC(=O)Nc2ccc(Cl)cc2F)C(=O)N[C@H]2COC(=O)[C@@H]3C[C@@H](C)CN3C(=O)[C@H](C)NC(=O)[C@@H]3CCCCN3C(=O)[C@@H]3CCCN3C2=O)c1 [Compound 8, (S)-2-(3-(4-CHLORO-2-FLUOROPHENYL)UREIDO)-N-((2R,6S,8AS,14AS,20S,23AS)-2,6-DIMETHYL-5,8,14,19,23-PENTAOXOOCTADECAHYDRO-1H,5H,14H,19H-PYRIDO[2,1-I]DIPYRROLO[2,1-C:2′,1′-L][1]OXA[4,7,10,13]TETRAAZACYCLOHEXADECIN-20-YL)-3-(M-TOLYL)PROPANAMIDE]
Sa-ClpP
  IC50: 3.51 ± 0.1 µM
Solubility determination
  μsol (μM): 8.8 ± 0.7 µM
  solubility kinetic at 10 min: 2.79 ± 0.5 µM (≈ 2.26 µg/mL)

## Cc1cccc(C[C@H](NC(=O)Nc2ccc(Cl)cc2F)C(=O)N[C@@H]2C(=O)N3CCC[C@H]3C(=O)N3CCN(C)C[C@H]3C(=O)N[C@@H](C)C(=O)N3C[C@H](C)C[C@H]3C(=O)O[C@H]2C)c1 [Compound 11, (S)-2-(3-(4-CHLORO-2-FLUOROPHENYL)UREIDO)-N-((6AS,12S,13S,15AS,17R,21S,23AS)-2,13,17,21-TETRAMETHYL-6,11,15,20,23-PENTAOXOOCTADECAHYDRO-2H,6H,11H,15H-PYRAZINO[2,1-I]DIPYRROLO[2,1-C:2′,1′-L][1]OXA[4,7,10,13]TETRAAZACYCLOHEXADECIN-12-YL)-3-(M-TOLYL)PROPANAMIDE] ({NH(4-Cl-2-F-phenyl)-CO}-[Phe(3-Me)][aThr]P[Piperazine(2S-CO,4-Me)]A[Pro(4R-Me)]; ester 2-C)
Sa-ClpP
  IC50: 3.45 ± 0.2 µM
Solubility determination
  μsol (μM): 32.2 ± 1.4 µM
  solubility kinetic at 10 min: 43.2 ± 3.14 µM (≈ 36.3 µg/mL)

## Cc1cccc(C[C@H](NC(=O)Nc2ccc3c(c2)OCCO3)C(=O)N[C@@H]2C(=O)N3C[C@H](O)C[C@H]3C(=O)N3CCOC[C@H]3C(=O)N[C@@H](C)C(=O)N3C[C@H](C)C[C@H]3C(=O)O[C@H]2C)c1 [Compound 27, (S)-2-(3-(2,3-DIHYDROBENZO[B][1,4]DIOXIN-6-YL)UREIDO)-N-((6AS,8R,12S,13S,15AS,17R,21S,23AS)-8-HYDROXY-13,17,21-TRIMETHYL-6,11,15,20,23-PENTAOXOOCTADECAHYDRO-6H,11H,15H-[1,4]OXAZINO[3,4-I]DIPYRROLO[2,1-C:2′,1′-L][1]OXA[4,7,10,13]TETRAAZACYCLOHEXADECIN-12-YL)-3-(M-TOLYL)PROPANAMIDE] ({X3-CO}-[Phe(3-Me)][aThr][Hyp][Morpholine(3S-CO)]A[Pro(4R-Me)]; ester 2-C)
Sa-ClpP
  IC50: 5.13 ± 0.16 µM
Solubility determination
  solubility kinetic at 10 min: 45.6 ± 5.6 µM (≈ 38.7 µg/mL)

## Cc1cccc(C[C@H](NC(=O)Nc2ccc(Cl)c(F)c2)C(=O)N[C@H]2COC(=O)[C@@H]3C[C@@H](C)CN3C(=O)[C@H](C)NC(=O)[C@@H]3CN(C)CCN3C(=O)[C@@H]3CCCN3C2=O)c1 [Compound 14, (S)-2-(3-(4-CHLORO-3-FLUOROPHENYL)UREIDO)-3-(M-TOLYL)-N-((6AS,12S,15AS,17R,21S,23AS)-2,17,21-TRIMETHYL-6,11,15,20,23-PENTAOXOOCTADECAHYDRO-2H,6H,11H,15H-PYRAZINO[2,1-I]DIPYRROLO[2,1-C:2′,1′-L][1]OXA[4,7,10,13]TETRAAZACYCLOHEXADECIN-12-YL)PROPANAMIDE] ({X2-CO}-[Phe(3-Me)]SP[Piperazine(2S-CO,4-Me)]A[Pro(4R-Me)]; ester 2-C)
Sa-ClpP
  IC50: 5.19 ± 0.2 µM
Solubility determination
  μsol (μM): 43.6 ± 1.8 µM
  solubility kinetic at 10 min: 39.3 ± 1.9 µM (≈ 32.4 µg/mL)

## Cc1cccc(C[C@H](NC(=O)Nc2ccc(Cl)cc2F)C(=O)N[C@H]2COC(=O)[C@@H]3C[C@@H](C)CN3C(=O)[C@H](C)NC(=O)[C@@H]3CN(C)CCN3C(=O)[C@@H]3CCCN3C2=O)c1 [Compound 13, (S)-2-(3-(4-CHLORO-2-FLUOROPHENYL)UREIDO)-3-(M-TOLYL)-N-((6AS,12S,15AS,17R,21S,23AS)-2,17,21-TRIMETHYL-6,11,15,20,23-PENTAOXOOCTADECAHYDRO-2H,6H,11H,15H-PYRAZINO[2,1-I]DIPYRROLO[2,1-C:2′,1′-L][1]OXA[4,7,10,13]TETRAAZACYCLOHEXADECIN-12-YL)PROPANAMIDE] ({NH(4-Cl-2-F-phenyl)-CO}-[Phe(3-Me)]SP[Piperazine(2S-CO,4-Me)]A[Pro(4R-Me)]; ester 2-C)
Sa-ClpP
  IC50: 16.4 ± 0.8 µM
Solubility determination
  μsol (μM): 38.3 ± 2.2 µM
  solubility kinetic at 10 min: 40.1 ± 4.6 µM (≈ 33.1 µg/mL)

## COc1cccc(C[C@H](NC(=O)Nc2ccc(Cl)cc2F)C(=O)N[C@H]2COC(=O)[C@@H]3C[C@@H](C)CN3C(=O)[C@H](C)NC(=O)[C@@H]3CN(C)CCN3C(=O)[C@@H]3CCCN3C2=O)c1 [Compound 19, (S)-2-(3-(4-CHLORO-2-FLUOROPHENYL)UREIDO)-3-(3-METHOXYPHENYL)-N-((6AS,12S,15AS,17R,21S,23AS)-2,17,21-TRIMETHYL-6,11,15,20,23-PENTAOXOOCTADECAHYDRO-2H,6H,11H,15H-PYRAZINO[2,1-I]DIPYRROLO[2,1-C:2′,1′-L][1]OXA[4,7,10,13]TETRAAZACYCLOHEXADECIN-12-YL)PROPANAMIDE] ({NH(4-Cl-2-F-phenyl)-CO}-[Phe(3-OMe)]SP[Piperazine(2S-CO,4-Me)]A[Pro(4R-Me)]; ester 2-C)
Sa-ClpP
  IC50: 6.05 ± 0.3 µM
Solubility determination
  μsol (μM): 51.5 ± 1.1 µM
  solubility kinetic at 10 min: 55.9 ± 2.9 µM (≈ 47 µg/mL)

## Cc1cccc(C[C@H](NC(=O)Nc2ccc(Cl)cc2F)C(=O)N[C@@H]2C(=O)N3C[C@H](OP(=O)(O)O)C[C@H]3C(=O)N3CCCC[C@H]3C(=O)N[C@@H](C)C(=O)N3C[C@H](C)C[C@H]3C(=O)O[C@H]2C)c1 [Compound 29, (2R,6S,8AS,14AS,16R,20S,21S,23AS)-20-((S)-2-(3-(4-CHLORO-2-FLUOROPHENYL)UREIDO)-3-(M-TOLYL)PROPANAMIDO)-2,6,21-TRIMETHYL-5,8,14,19,23-PENTAOXOOCTADECAHYDRO-1H,5H,14H,19H-PYRIDO[2,1-I]DIPYRROLO[2,1-C:2′,1′-L][1]OXA[4,7,10,13]TETRAAZACYCLOHEXADECIN-16-YL DIHYDROGEN PHOSPHATE] ({NH(4-Cl-2-F-phenyl)-CO}-[Phe(3-Me)][aThr][X5][Pip]A[Pro(4R-Me)]; ester 2-C)
Sa-ClpP
  IC50: 4.45 ± 0.45 µM
Solubility determination; solubility in DPBS, 100 μM test samples, LCMS, read-out: LCMS
  solubility kinetic at 10 min: 66.6 ± 6.6 µM
Solubility determination; solubility
  μsol (μM): 58.7 ± 8.7 µM

From patent publication US10570179B2, “Substituted urea depsipeptide analogs as activators of the CLPP endopeptidase” (priority 2016, dated 2020)
